ChEMBL document CHEMBL5352497, “Aromatic hydrazides: A potential solution for Acinetobacter baumannii infections” (Eur J Med Chem, 2023)
Values after ≈ are worked out from the molar mass of the structure shown.

Columns and labels:
Acinetobacter baumannii [1] = assay: Antibacterial activity against Acinetobacter baumannii ATCC 19606; assay type: functional
Escherichia coli = assay: Antibacterial activity against Escherichia coli MC1061; assay type: functional
Acinetobacter baumannii [2] = assay: Antibacterial activity against Acinetobacter baumannii BAA1605; assay type: functional
[3] = Hemolytic activity in mouse RBC at 8 ug/ml incubated for 1 hr; assay type: toxicity, cell-based, Erythrocyte; settings: red blood cells (erythrocytes), at 8 µg/mL, read-out: Activity
Salmonella enterica = assay: Antibacterial activity against Salmonella enterica ATCC 14028; assay type: functional
Bacillus anthracis = assay: Antibacterial activity against Bacillus anthracis Sterne F32; assay type: functional
Staphylococcus aureus = assay: Antibacterial activity against Staphylococcus aureus ATCC 25923; assay type: functional
Pseudomonas aeruginosa = assay: Antibacterial activity against Pseudomonas aeruginosa ATCC 27853; assay type: functional
Klebsiella pneumoniae = assay: Antibacterial activity against Klebsiella pneumoniae ATCC 27736; assay type: functional
[4] = test system: Staphylococcus epidermidis; assay: Antibacterial activity against Staphylococcus epidermidis ATCC 12228; assay type: functional
Enterobacter cloacae = assay: Antibacterial activity against Enterobacter cloacae ATCC 13047; assay type: functional
Erythrocyte = assay: Hemolytic activity in mouse RBC at 32 ug/ml incubated for 1 hr; assay type: toxicity, cell-based; settings: erythrocyte, 1 h, dose 32 µg/ml
HEK293 = assay: Cytotoxicity against HEK293 cells at 8 ug/ml; assay type: toxicity, cell-based; settings: human, dose 8 µg/ml

## O=C(NNC1CCCCC1)c1ccc2ccccc2n1
Acinetobacter baumannii [1]
  MIC: > 64 µg/mL
Escherichia coli
  MIC: 64 µg/mL (≈ 238 µM)
Acinetobacter baumannii [2]
  MIC: > 64 µg/mL
[3]
  hemolysis at 1 h, 8 ug/ml: < 10%
Salmonella enterica
  MIC: > 64 µg/mL
Bacillus anthracis
  MIC: > 64 µg/mL
Staphylococcus aureus
  MIC: > 64 µg/mL
Pseudomonas aeruginosa
  MIC: > 64 µg/mL
Klebsiella pneumoniae
  MIC: > 64 µg/mL
[4]
  MIC: > 64 µg/mL
Enterobacter cloacae
  MIC: > 64 µg/mL
Erythrocyte
  Activity: Non-Toxic
HEK293
  Activity: Non-Toxic

## O=C(NNc1cccc(F)c1)c1cnccn1
[3]
  hemolysis at 1 h, 8 ug/ml: < 10%
Erythrocyte
  Activity: Non-Toxic
HEK293
  Activity: Non-Toxic

## O=C(NNc1ccc(Cl)cc1)c1cnccn1
[3]
  hemolysis at 1 h, 8 ug/ml: < 10%
Erythrocyte
  Activity: Non-Toxic
HEK293
  Activity: Non-Toxic

## CCOC(=O)CNNC(=O)c1ccccn1
[3]
  hemolysis at 1 h, 8 ug/ml: < 10%
Erythrocyte
  Activity: Non-Toxic
HEK293
  Activity: Non-Toxic

## C=CC(=O)NNc1ccc(Cl)cc1
Acinetobacter baumannii [1]
  MIC: 0.25 µg/mL (≈ 1.27 µM)
Escherichia coli
  MIC: 16 µg/mL (≈ 81.4 µM)
Acinetobacter baumannii [2]
  MIC: 0.25 µg/mL (≈ 1.27 µM)
[3]
  hemolysis at 1 h, 8 ug/ml: < 10%
Salmonella enterica
  MIC: 16 µg/mL (≈ 81.4 µM)
Bacillus anthracis
  MIC: > 64 µg/mL
Staphylococcus aureus
  MIC: 64 µg/mL (≈ 325 µM)
Pseudomonas aeruginosa
  MIC: > 64 µg/mL
Klebsiella pneumoniae
  MIC: 16 µg/mL (≈ 81.4 µM)
[4]
  MIC: 64 µg/mL (≈ 325 µM)
Enterobacter cloacae
  MIC: 16 µg/mL (≈ 81.4 µM)
Erythrocyte
  Activity: Non-Toxic
HEK293
  Activity: Non-Toxic

## CCOC(=O)CNNC(=O)c1ccc(F)cn1
[3]
  hemolysis at 1 h, 8 ug/ml: < 10%
Erythrocyte
  Activity: Non-Toxic
HEK293
  Activity: Non-Toxic

## O=C(NNc1ccc(Cl)cc1)c1ccccc1
Acinetobacter baumannii [1]
  MIC: 0.25 µg/mL (≈ 1.01 µM)
Escherichia coli
  MIC: 16 µg/mL (≈ 64.9 µM)
Acinetobacter baumannii [2]
  MIC: 0.5 µg/mL (≈ 2.03 µM)
[3]
  hemolysis at 1 h, 8 ug/ml: < 10%
Salmonella enterica
  MIC: 64 µg/mL (≈ 259 µM)
Bacillus anthracis
  MIC: > 64 µg/mL
Staphylococcus aureus
  MIC: 64 µg/mL (≈ 259 µM)
Pseudomonas aeruginosa
  MIC: > 64 µg/mL
Klebsiella pneumoniae
  MIC: 16 µg/mL (≈ 64.9 µM)
[4]
  MIC: 64 µg/mL (≈ 259 µM)
Enterobacter cloacae
  MIC: 16 µg/mL (≈ 64.9 µM)
Erythrocyte
  Activity: Non-Toxic
HEK293
  Activity: Non-Toxic

## O=C(NNc1cccc(F)c1)c1cccnc1
[3]
  hemolysis at 1 h, 8 ug/ml: < 10%
Erythrocyte
  Activity: Non-Toxic
HEK293
  Activity: Non-Toxic

## O=C(NNc1cccc(F)c1)c1ccc(F)cc1F
[3]
  hemolysis at 1 h, 8 ug/ml: < 10%
Erythrocyte
  Activity: Non-Toxic
HEK293
  Activity: Non-Toxic

## O=C(NNc1ccc(Cl)cc1)c1cnc2ccccc2n1
[3]
  hemolysis at 1 h, 8 ug/ml: < 10%
Erythrocyte
  Activity: Non-Toxic
HEK293
  Activity: Non-Toxic

## O=C(NNc1ccc(Cl)cc1)c1ccc(F)cc1F
Acinetobacter baumannii [1]
  MIC: 0.25 µg/mL (≈ 0.884 µM)
Escherichia coli
  MIC: 16 µg/mL (≈ 56.6 µM)
Acinetobacter baumannii [2]
  MIC: 0.25 µg/mL (≈ 0.884 µM)
[3]
  hemolysis at 1 h, 8 ug/ml: < 10%
Salmonella enterica
  MIC: > 64 µg/mL
Bacillus anthracis
  MIC: > 64 µg/mL
Staphylococcus aureus
  MIC: > 64 µg/mL
Pseudomonas aeruginosa
  MIC: > 64 µg/mL
Klebsiella pneumoniae
  MIC: > 64 µg/mL
[4]
  MIC: > 64 µg/mL
Enterobacter cloacae
  MIC: 16 µg/mL (≈ 56.6 µM)
Erythrocyte
  Activity: Non-Toxic
HEK293
  Activity: Non-Toxic

## CCC(=O)NNc1cccc(F)c1
[3]
  hemolysis at 1 h, 8 ug/ml: < 10%
Erythrocyte
  Activity: Non-Toxic
HEK293
  Activity: Non-Toxic

## COc1cccc(NNC(=O)c2ccc(F)cn2)c1
Acinetobacter baumannii [1]
  MIC: 0.5 µg/mL (≈ 1.91 µM)
Escherichia coli
  MIC: > 64 µg/mL
Acinetobacter baumannii [2]
  MIC: 0.5 µg/mL (≈ 1.91 µM)
[3]
  hemolysis at 1 h, 8 ug/ml: < 10%
Salmonella enterica
  MIC: > 64 µg/mL
Bacillus anthracis
  MIC: > 64 µg/mL
Staphylococcus aureus
  MIC: > 64 µg/mL
Pseudomonas aeruginosa
  MIC: > 64 µg/mL
Klebsiella pneumoniae
  MIC: > 64 µg/mL
[4]
  MIC: 64 µg/mL (≈ 245 µM)
Enterobacter cloacae
  MIC: > 64 µg/mL
Erythrocyte
  Activity: Non-Toxic
HEK293
  Activity: Non-Toxic

## COc1ccc(NNC(=O)c2ccc(F)cn2)cc1
Acinetobacter baumannii [1]
  MIC: 1 µg/mL (≈ 3.83 µM)
Escherichia coli
  MIC: > 64 µg/mL
Acinetobacter baumannii [2]
  MIC: 0.5 µg/mL (≈ 1.91 µM)
[3]
  hemolysis at 1 h, 8 ug/ml: < 10%
Salmonella enterica
  MIC: > 64 µg/mL
Bacillus anthracis
  MIC: > 64 µg/mL
Staphylococcus aureus
  MIC: > 64 µg/mL
Pseudomonas aeruginosa
  MIC: > 64 µg/mL
Klebsiella pneumoniae
  MIC: > 64 µg/mL
[4]
  MIC: > 64 µg/mL
Enterobacter cloacae
  MIC: > 64 µg/mL
Erythrocyte
  Activity: Non-Toxic
HEK293
  Activity: Non-Toxic

## O=C(NNc1cccc(F)c1)c1ccccc1
[3]
  hemolysis at 1 h, 8 ug/ml: < 10%
Erythrocyte
  Activity: Non-Toxic
HEK293
  Activity: Non-Toxic

## O=C(NNc1cccc(F)c1)c1cccc(F)n1
[3]
  hemolysis at 1 h, 8 ug/ml: < 10%
Erythrocyte
  Activity: Non-Toxic
HEK293
  Activity: Non-Toxic

## CCC(=O)NNc1ccc(Cl)cc1
Acinetobacter baumannii [1]
  MIC: ≤ 0.125 µg/mL
Escherichia coli
  MIC: 16 µg/mL (≈ 80.5 µM)
Acinetobacter baumannii [2]
  MIC: ≤ 0.125 µg/mL
[3]
  hemolysis at 1 h, 8 ug/ml: < 10%
Salmonella enterica
  MIC: 64 µg/mL (≈ 322 µM)
Bacillus anthracis
  MIC: > 64 µg/mL
Staphylococcus aureus
  MIC: > 64 µg/mL
Pseudomonas aeruginosa
  MIC: > 64 µg/mL
Klebsiella pneumoniae
  MIC: 16 µg/mL (≈ 80.5 µM)
[4]
  MIC: > 64 µg/mL
Enterobacter cloacae
  MIC: 16 µg/mL (≈ 80.5 µM)
Erythrocyte
  Activity: Non-Toxic
HEK293
  Activity: Non-Toxic

## O=C(NNc1cccc(F)c1)c1ccc(Br)cn1
[3]
  hemolysis at 1 h, 8 ug/ml: < 10%
Erythrocyte
  Activity: Non-Toxic
HEK293
  Activity: Non-Toxic

## CCOC(=O)CNNC(=O)c1ccc(F)cc1F
[3]
  hemolysis at 1 h, 8 ug/ml: < 10%
Erythrocyte
  Activity: Non-Toxic
HEK293
  Activity: Non-Toxic

## O=C(NNc1cccc(F)c1)c1nc(F)ccc1F
[3]
  hemolysis at 1 h, 8 ug/ml: < 10%
Erythrocyte
  Activity: Non-Toxic
HEK293
  Activity: Non-Toxic

## O=C(NNc1cccc(F)c1)c1cccc(Br)n1
[3]
  hemolysis at 1 h, 8 ug/ml: < 10%
Erythrocyte
  Activity: Non-Toxic
HEK293
  Activity: Non-Toxic

## CCOC(=O)CNNC(=O)c1cccc(F)n1
[3]
  hemolysis at 1 h, 8 ug/ml: < 10%
Erythrocyte
  Activity: Non-Toxic
HEK293
  Activity: Non-Toxic

## O=C(NNc1ccc(Cl)cc1)c1ncc(F)cc1F
[3]
  hemolysis at 1 h, 8 ug/ml: < 10%
Erythrocyte
  Activity: Non-Toxic
HEK293
  Activity: Non-Toxic

## O=C(NNc1cccc(F)c1)c1cc2ccccc2[nH]1
[3]
  hemolysis at 1 h, 8 ug/ml: < 10%
Erythrocyte
  Activity: Non-Toxic
HEK293
  Activity: Non-Toxic

## O=C(NNC1CCCCC1)c1cccnc1
[3]
  hemolysis at 1 h, 8 ug/ml: < 10%
Erythrocyte
  Activity: Non-Toxic
HEK293
  Activity: Non-Toxic

## CCOC(=O)CNNC(=O)c1ccc2ccccc2n1
Acinetobacter baumannii [1]
  MIC: > 64 µg/mL
Escherichia coli
  MIC: > 64 µg/mL
Acinetobacter baumannii [2]
  MIC: > 64 µg/mL
[3]
  hemolysis at 1 h, 8 ug/ml: < 10%
Salmonella enterica
  MIC: > 64 µg/mL
Bacillus anthracis
  MIC: > 64 µg/mL
Staphylococcus aureus
  MIC: > 64 µg/mL
Pseudomonas aeruginosa
  MIC: > 64 µg/mL
Klebsiella pneumoniae
  MIC: > 64 µg/mL
[4]
  MIC: > 64 µg/mL
Enterobacter cloacae
  MIC: > 64 µg/mL
Erythrocyte
  Activity: Non-Toxic
HEK293
  Activity: Non-Toxic

## O=C(NNc1ccc(Cl)cc1)c1nc(F)ccc1F
[3]
  hemolysis at 1 h, 8 ug/ml: < 10%
Erythrocyte
  Activity: Non-Toxic
HEK293
  Activity: Non-Toxic

## O=C(NNc1ccc(Cl)cc1)c1cccnc1
[3]
  hemolysis at 1 h, 8 ug/ml: < 10%
Erythrocyte
  Activity: Non-Toxic
HEK293
  Activity: Non-Toxic

## O=C(NNc1cccc(F)c1)c1ccccn1
[3]
  hemolysis at 1 h, 8 ug/ml: < 10%
Erythrocyte
  Activity: Non-Toxic
HEK293
  Activity: Non-Toxic

## CCOC(=O)CNNC(=O)c1cnccn1
[3]
  hemolysis at 1 h, 8 ug/ml: < 10%
Erythrocyte
  Activity: Non-Toxic
HEK293
  Activity: Non-Toxic

## O=C(NNc1cccc(F)c1)c1ccco1
[3]
  hemolysis at 1 h, 8 ug/ml: < 10%
Erythrocyte
  Activity: Non-Toxic
HEK293
  Activity: Non-Toxic

## O=C(NNC1CCCCC1)c1cnccn1
[3]
  hemolysis at 1 h, 8 ug/ml: < 10%
Erythrocyte
  Activity: Non-Toxic
HEK293
  Activity: Non-Toxic

## O=C(NNc1cccc(F)c1)c1ncc(F)cc1F
[3]
  hemolysis at 1 h, 8 ug/ml: < 10%
Erythrocyte
  Activity: Non-Toxic
HEK293
  Activity: Non-Toxic

## COc1cccc(NNC(=O)c2ccccn2)c1
[3]
  hemolysis at 1 h, 8 ug/ml: < 10%
Erythrocyte
  Activity: Non-Toxic
HEK293
  Activity: Non-Toxic

## O=C(NNC1CCCCC1)c1ccc(F)cc1F
[3]
  hemolysis at 1 h, 8 ug/ml: < 10%
Erythrocyte
  Activity: Non-Toxic
HEK293
  Activity: Non-Toxic

## O=C(NNc1cccc(F)c1)c1cnc2ccccc2n1
[3]
  hemolysis at 1 h, 8 ug/ml: < 10%
Erythrocyte
  Activity: Non-Toxic
HEK293
  Activity: Non-Toxic
